Article PMC8058163 (Clinical pharmacology and therapeutics, 2020)
Values joined by “and” are separate entries in the source; they are usually repeats but may differ in a detail not shown here. Equal entries are not always repeated. Where two headings read alike, the source gives them in different places.

Key:
[1] = biological target: T1, OATP1B3 (Homo sapiens, UniProt Q9NPD5); assay: Transporter inhibition assay, OATP1B3; format: cell-based; conditions: cell line (HEK293 or MDCKII) stably expressing OATP1B3
T1 sequence (Q9NPD5 1-702): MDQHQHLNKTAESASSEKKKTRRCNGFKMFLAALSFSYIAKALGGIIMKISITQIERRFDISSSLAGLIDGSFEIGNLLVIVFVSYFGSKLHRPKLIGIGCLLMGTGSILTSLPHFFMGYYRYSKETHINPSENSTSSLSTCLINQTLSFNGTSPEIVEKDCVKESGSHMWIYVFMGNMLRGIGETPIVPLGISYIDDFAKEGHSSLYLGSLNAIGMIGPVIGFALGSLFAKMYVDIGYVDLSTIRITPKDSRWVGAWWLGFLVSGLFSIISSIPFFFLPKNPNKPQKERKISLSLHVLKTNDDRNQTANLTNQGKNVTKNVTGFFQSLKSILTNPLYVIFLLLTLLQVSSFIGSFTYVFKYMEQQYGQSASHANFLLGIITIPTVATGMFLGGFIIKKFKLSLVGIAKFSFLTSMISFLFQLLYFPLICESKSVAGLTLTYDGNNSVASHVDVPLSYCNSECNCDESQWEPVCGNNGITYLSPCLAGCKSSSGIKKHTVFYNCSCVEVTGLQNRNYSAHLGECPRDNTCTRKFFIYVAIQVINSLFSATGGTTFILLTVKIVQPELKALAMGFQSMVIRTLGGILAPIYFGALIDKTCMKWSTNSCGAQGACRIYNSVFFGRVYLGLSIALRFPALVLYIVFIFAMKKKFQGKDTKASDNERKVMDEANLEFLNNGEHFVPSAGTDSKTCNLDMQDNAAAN

[2] = biological target: P-gp (Homo sapiens, UniProt P08183); assay: Transporter inhibition assay, P-gp; format: biochemical
[3] = biological target: T2, OCT2 (Homo sapiens, UniProt O15244); assay: Transporter inhibition assay, OCT2
T2 sequence (O15244 1-555): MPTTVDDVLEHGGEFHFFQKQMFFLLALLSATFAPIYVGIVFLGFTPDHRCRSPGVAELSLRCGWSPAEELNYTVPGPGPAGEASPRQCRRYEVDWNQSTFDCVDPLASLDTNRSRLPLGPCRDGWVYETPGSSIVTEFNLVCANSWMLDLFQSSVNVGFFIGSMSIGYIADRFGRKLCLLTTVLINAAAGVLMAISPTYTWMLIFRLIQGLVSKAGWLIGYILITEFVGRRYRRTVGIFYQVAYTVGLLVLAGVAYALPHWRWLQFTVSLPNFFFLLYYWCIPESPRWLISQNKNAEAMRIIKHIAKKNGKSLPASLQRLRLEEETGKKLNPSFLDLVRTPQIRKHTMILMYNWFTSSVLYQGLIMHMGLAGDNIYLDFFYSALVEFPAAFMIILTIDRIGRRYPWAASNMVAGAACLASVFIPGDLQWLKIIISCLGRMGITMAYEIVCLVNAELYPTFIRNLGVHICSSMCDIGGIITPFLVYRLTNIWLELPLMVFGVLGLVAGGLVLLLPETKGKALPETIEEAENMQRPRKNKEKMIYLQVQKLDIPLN

[4] = biological target: T3, MATE1 (Homo sapiens, UniProt Q96FL8); assay: Transporter inhibition assay, MATE1
T3 sequence (Q96FL8 1-570): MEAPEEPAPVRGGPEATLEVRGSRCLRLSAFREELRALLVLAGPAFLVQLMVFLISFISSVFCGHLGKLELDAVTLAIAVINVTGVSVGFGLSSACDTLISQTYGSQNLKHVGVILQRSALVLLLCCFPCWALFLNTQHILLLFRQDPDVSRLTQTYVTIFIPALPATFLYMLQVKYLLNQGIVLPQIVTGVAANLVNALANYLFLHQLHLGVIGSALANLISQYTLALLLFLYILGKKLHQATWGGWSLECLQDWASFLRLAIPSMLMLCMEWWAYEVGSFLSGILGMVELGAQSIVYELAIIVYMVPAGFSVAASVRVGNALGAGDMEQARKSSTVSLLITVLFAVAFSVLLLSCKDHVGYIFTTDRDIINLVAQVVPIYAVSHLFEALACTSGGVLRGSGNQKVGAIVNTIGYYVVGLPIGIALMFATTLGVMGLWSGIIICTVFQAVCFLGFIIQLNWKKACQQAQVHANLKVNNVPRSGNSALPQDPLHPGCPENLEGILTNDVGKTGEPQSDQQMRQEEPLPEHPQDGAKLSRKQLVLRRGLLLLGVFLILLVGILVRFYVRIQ

[5] = biological target: T4, OATP1B1 (Homo sapiens, UniProt Q9Y6L6); assay: Transporter inhibition assay, OATP1B1; conditions: for inhibition at 100 μM: cell line (HEK293 or MDCKII) stably expressing OATP1B1
T4 sequence (Q9Y6L6 1-691): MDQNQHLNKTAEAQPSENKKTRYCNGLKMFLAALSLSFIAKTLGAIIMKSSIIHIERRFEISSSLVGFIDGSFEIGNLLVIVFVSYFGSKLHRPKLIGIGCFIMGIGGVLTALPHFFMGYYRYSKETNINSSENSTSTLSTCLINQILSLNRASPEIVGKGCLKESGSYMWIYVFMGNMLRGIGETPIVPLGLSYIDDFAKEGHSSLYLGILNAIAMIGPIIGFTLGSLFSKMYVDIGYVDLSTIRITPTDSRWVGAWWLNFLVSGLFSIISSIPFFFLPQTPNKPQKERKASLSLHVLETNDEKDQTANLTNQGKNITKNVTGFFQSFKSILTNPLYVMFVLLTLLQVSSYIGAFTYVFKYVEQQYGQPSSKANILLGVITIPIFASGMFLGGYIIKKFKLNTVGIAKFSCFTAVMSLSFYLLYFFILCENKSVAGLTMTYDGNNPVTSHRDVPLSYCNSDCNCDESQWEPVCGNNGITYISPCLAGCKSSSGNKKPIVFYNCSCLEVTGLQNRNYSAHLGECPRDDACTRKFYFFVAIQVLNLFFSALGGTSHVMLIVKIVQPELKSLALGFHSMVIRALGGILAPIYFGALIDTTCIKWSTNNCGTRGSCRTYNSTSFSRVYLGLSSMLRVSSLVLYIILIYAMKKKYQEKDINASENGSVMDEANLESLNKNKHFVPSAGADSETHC

P-gp, sequence (P08183 whole entry): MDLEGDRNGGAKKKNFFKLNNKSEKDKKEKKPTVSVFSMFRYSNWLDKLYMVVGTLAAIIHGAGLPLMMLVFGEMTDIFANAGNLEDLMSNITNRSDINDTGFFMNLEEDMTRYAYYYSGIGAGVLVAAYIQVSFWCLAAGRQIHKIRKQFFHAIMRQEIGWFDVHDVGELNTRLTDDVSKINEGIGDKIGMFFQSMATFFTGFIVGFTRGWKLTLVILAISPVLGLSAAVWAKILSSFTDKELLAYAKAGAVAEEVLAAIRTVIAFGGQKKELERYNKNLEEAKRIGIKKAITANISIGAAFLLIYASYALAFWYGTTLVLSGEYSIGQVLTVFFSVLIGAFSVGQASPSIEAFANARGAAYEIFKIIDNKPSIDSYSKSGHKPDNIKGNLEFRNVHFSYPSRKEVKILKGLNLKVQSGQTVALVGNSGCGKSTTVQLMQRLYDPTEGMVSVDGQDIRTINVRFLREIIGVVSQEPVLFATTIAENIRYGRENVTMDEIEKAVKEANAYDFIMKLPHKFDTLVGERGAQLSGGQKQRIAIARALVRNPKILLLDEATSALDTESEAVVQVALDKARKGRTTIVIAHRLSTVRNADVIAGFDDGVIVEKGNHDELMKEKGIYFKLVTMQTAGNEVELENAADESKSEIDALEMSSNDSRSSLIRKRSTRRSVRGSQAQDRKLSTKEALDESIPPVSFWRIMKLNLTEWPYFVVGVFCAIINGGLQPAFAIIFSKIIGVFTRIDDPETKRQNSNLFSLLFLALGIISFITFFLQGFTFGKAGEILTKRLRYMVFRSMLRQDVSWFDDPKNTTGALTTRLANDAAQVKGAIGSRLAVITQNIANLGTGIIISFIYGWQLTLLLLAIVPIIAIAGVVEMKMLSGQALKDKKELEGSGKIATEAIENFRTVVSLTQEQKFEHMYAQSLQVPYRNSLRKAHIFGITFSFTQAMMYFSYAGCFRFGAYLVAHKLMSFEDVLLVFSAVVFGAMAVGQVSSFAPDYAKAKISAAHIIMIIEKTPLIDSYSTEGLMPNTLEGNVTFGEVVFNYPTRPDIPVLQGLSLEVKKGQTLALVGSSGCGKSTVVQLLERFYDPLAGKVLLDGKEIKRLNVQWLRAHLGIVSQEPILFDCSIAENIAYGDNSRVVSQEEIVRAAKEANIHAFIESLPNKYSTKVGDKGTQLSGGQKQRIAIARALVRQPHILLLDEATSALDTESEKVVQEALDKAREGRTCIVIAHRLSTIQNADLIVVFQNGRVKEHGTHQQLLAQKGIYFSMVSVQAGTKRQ

IC50 ([4]; IC50, MATE1, isolated alkaloids, mean [95% CI], three technical replicates) | SMILES | inhibition at 100 μM [1] | inhibition at 100 μM [2] | IC50 [3] | inhibition at 100 μM [5] | IC50 ([3]; OCT2, isolated alkaloids, mean [95% CI], three technical replicates) | IC50 ([4]; MATE1, isolated alkaloids, mean [95% CI], three technical replicates) | IC50 ([5]; OATP1B1, isolated alkaloids, mean [95% CI], three technical replicates) | IC50 [4]
< 1 µM and 0.73 µM | COc1ccc2cc3[n+](cc2c1OC)CCc1cc2c(cc1-3)OCO2 [Berberine, berberine chloride] | < 20% | < 20% | 45 µM | < 20% | – | – | – | –
– | COc1ccc2c(c1OC)C(=O)O[C@@H]2[C@H]1c2cc3c(cc2CCN1C)OCO3 [(−)-β-Hydrastine, (1R,9S)-(−)-β-Hydrastine] | – | – | – | – | 90 µM | 110 µM | 120 µM | –
– | CN1CCc2cc3c(cc2C1O)OCO3 (stereo not shown) [Hydrastinine, hydrastinine chloride monohydrate] | < 20% | < 20% | 95 µM | < 20% | – | – | – | 82 µM
